Read-outs that look alike come from different tables or passages of the source.
Legend:
[1] = test system: Z138 cells; experiment: MTT cell proliferation assay, Z138 cells; assay type: cell-based, human; conditions: Z138 cells (mature B-cell acute lymphoblastic leukemia cell line), approximately 64-72 hours incubation
Protocol: (§1) The MTT cell proliferation assay was used to study the cytotoxic properties of the compounds. The assay was performed according to the method described by Roche Molecular Biochemicals, with minor modifications. The assay is based on the cleavage of the tetrazolium salt, MTT, in the presence of an electron-coupling reagent. The water-insoluble formazan salt produced must be solubilized in an additional step. Cells grown in a 96-well tissue culture plate were incubated with the MTT solution for approximately 4 hours. After this incubation period, a water-insoluble formazan dye formed. After solubilization, the formazan dye was quantitated using a scanning multi-well spectrophotometer (ELISA reader). […] The cells were seeded at 5,000-10,000 cells in each well of 96-well plate in 100 μL of fresh culture medium and were allowed to attach overnight. The stock solutions of the compounds were diluted in 100 μL cell culture medium to obtain eight concentrations of each test compound, ranging from 1 nM to 30 μM. […] All optical densities were measured at 490 nm using a Vmax Kinetic Microplate Reader (Molecular Devices). In most cases, the assay was performed in duplicate and the results were presented as a mean percent inhibition to the negative control±SE. The following formula was used to calculate the percent of inhibition: Inhibition (%)=(1−(ODo/OD))×100.
(§2) The compounds were tested against MS751, Z138 and 3T3 cells. The MS751 cell line is derived from a metastasis to lymph node of human cervix from a patient diagnosed with squameous cell carcinoma of the cervix. The Z138 cell line is a mature B-cell acute lymphoblastic leukemia cell line derived from a patient with chronic lumphocytic leukemia. 3T3 cells are standard fibroblast cells; they were originally isolated from Swiss mouse embryo tissue.

[2] = test system: MS751 cells; experiment: MTT cell proliferation assay, MS751 cells; assay type: cell-based; conditions: MS751 cells (human cervix squamous cell carcinoma, lymph node metastasis); approximately 64-72 hours incubation
Protocol: as §1, §2

[3] = test system: 3T3 cells; experiment: MTT cell proliferation assay, 3T3 cells; assay type: cell-based; conditions: 3T3 cells (standard fibroblast cells, Swiss mouse embryo), approximately 64-72 hours incubation
Protocol: as §1, §2

Compound | IC50 ([1]; Homo sapiens, Z-138) | IC50 [2] | IC50 ([3]; NIH3T3) | IC50 ([1]; read-out: Z-138 MTT (IC50; μM)) | IC50 [3]
N#C/N=C(/NCc1ccc(N)nc1)NCc1cc2cc(-c3ccc(C(=O)N4CCC(F)(F)CC4)cc3)cc(-c3ccc(F)cc3)c2o1 [Compound 119, (Z)-1-((6-aminopyridin-3-yl)methyl)-2-cyano-3-((5-(4-(4,4-difluoropiperidine-1-carbonyl)phenyl)-7-(4-fluorophenyl)benzofuran-2-yl)methyl)guanidine] | 0.1 to 5 µM | 0.1 to 5 µM | > 10 µM | – | –
O=C(NCc1cc2cc(-c3ccc(C(=O)N4CCC(F)(F)CC4)cc3)cc(-c3ccc(F)cc3)c2s1)N1Cc2ccncc2C1 [Compound 111, N-((5-(4-(4,4-difluoropiperidine-1-carbonyl)phenyl)-7-(4-fluorophenyl)benzo[b]thiophen-2-yl)methyl)-1H-pyrrolo[3,4-c]pyridine-2(3H)-carboxamide] | < 0.1 µM | – | > 10 µM | – | –
Nc1cc2c(cn1)CN(C(=O)NCc1cc3cc(-c4ccc(C(=O)N5CCC(F)(F)CC5)cc4)cc(-c4ccc(F)cc4)c3o1)C2 [Compound 115, 6-amino-N-((5-(4-(4,4-difluoropiperidine-1-carbonyl)phenyl)-7-(4-fluorophenyl)benzofuran-2-yl)methyl)-1H-pyrrolo[3,4-c]pyridine-2(3H)-carboxamide] | < 0.1 µM | – | 0.1 to 5 µM | – | –
1-((6-aminopyridin- 3-yl)methyl)-3-(2-((4- (4,4-difluoropiperidine- 1-carbonyl)-4″- fluoro-[1,1′:3′,1″- terphenyl]-4′- yl)oxy)ethyl)urea [Compound 124] | – | – | – | < 0.1 µM | > 10 µM
Nc1ccc(CNC(=O)NCC2Cc3cc(-c4ccc(C(=O)N5CCC(F)(F)CC5)cc4)cc(-c4ccc(F)cc4)c3O2)cn1 (stereo not shown) [Compound 123, 1-((6-aminopyridin-3-yl)methyl)-3-((5-(4-(4,4-difluoropiperidine-1-carbonyl)phenyl)-7-(4-fluorophenyl)-2,3-dihydrobenzofuran-2-yl)methyl)urea] | < 0.1 µM | – | 0.1 to 5 µM | – | –
Nc1ccc(CNC(=O)NCc2ccc(-c3ccc(-c4ccc(C(=O)N5CCC(F)(F)CC5)cc4)cc3-c3ccc(F)cc3)o2)cn1 [Compound 125, 1-((6-aminopyridin-3-yl)methyl)-3-((5-(3-(4-fluorophenyl)-4′-(4,4-difluoropiperidine-1-carbonyl)biphenyl-4-yl)furan-2-yl)methyl)urea] | < 0.1 µM | – | > 10 µM | – | –
Nc1ccc(CNC(=O)NCc2cc3cc(-c4ccc(C(=O)N5CCC(F)(F)CC5)cn4)cc(-c4ccc(F)cc4)c3o2)cn1 [Compound 116, 1-((6-aminopyridin-3-yl)methyl)-3-((5-(5-(4,4-difluoropiperidine-1-carbonyl)pyridin-2-yl)-7-(4-fluorophenyl)benzofuran-2-yl)methyl)urea] | < 0.1 µM | – | 0.1 to 5 µM | – | –
O=C(NCC1Cc2cc(-c3ccc(C(=O)N4CCC(F)(F)CC4)cc3)cc(-c3ccc(F)cc3)c2O1)N1Cc2ccncc2C1 (stereo not shown) [Compound 122, N-((5-(4-(4,4-difluoropiperidine-1-carbonyl)phenyl)-7-(4-fluorophenyl)-2,3-dihydrobenzofuran-2-yl)methyl)-1,3-dihydro-2H-pyrrolo [3,4-c]pyridine-2-carboxamide] | < 0.1 µM | – | < 0.1 µM | – | –
O=C(NCc1cc2cc(-c3ccc(C(=O)N4CCC(F)(F)CC4)cc3)cc(C(F)(F)F)c2o1)N1Cc2ccncc2C1 [Compound 105, N-((5-(4-(4,4-difluoropiperidine-1-carbonyl)phenyl)-7-(trifluoromethyl)benzofuran-2-yl)methyl)-1H-pyrrolo[3,4-c]pyridine-2(3H)-carboxamide] | 0.1 to 5 µM | – | > 10 µM | – | –
Nc1ccc(CNC(=O)NCc2cc3cc(-c4ccc(C(=O)N5CCC(F)(F)CC5)cc4)cc(-c4ccc(F)cc4)c3s2)cn1 [Compound 114, 1-((6-aminopyridin-3-yl)methyl)-3-((5-(4-(4,4-difluoropiperidine-1-carbonyl)phenyl)-7-(4-fluorophenyl)benzo[b]thiophen-2-yl)methyl)urea] | 5 to 10 µM | – | > 10 µM | – | –
O=C(NCc1cccnc1)NCc1cc2cc(-c3ccc(C(=O)N4CCC(F)(F)CC4)cc3)cc(-c3ccc(F)cc3)c2o1 [Compound 104, 1-((5-(4-(4,4-difluoropiperidine-1-carbonyl)phenyl)-7-(4-fluorophenyl)benzofuran-2-yl)methyl)-3-(pyridin-3-ylmethyl)urea] | < 0.1 µM | – | 0.1 to 5 µM | – | –
O=C(NCc1cc2cc(-c3ccc(C(=O)N4CC(F)(F)C4)cc3)cc(C(F)(F)F)c2o1)N1Cc2ccncc2C1 [Compound 106, N-((5-(4-(3,3-difluoroazetidine-1-carbonyl)phenyl)-7-(trifluoromethyl)benzofuran-2-yl)methyl)-1H-pyrrolo[3,4-c]pyridine-2(3H)-carboxamide] | > 10 µM | – | > 10 µM | – | –
Nc1ccc(CNC(=O)NCc2cc3cc(-c4ccc(C(=O)N5CC(F)(F)C5)cc4)cc(C(F)(F)F)c3o2)cn1 [Compound 117, 1-((6-aminopyridin-3-yl)methyl)-3-((5-(4-(3,3-difluoroazetidine-1-carbonyl)phenyl)-7-(trifluoromethyl)benzofuran-2-yl)methyl)urea] | 5 to 10 µM | – | > 10 µM | – | –
CN(Cc1cc2cc(-c3ccc(C(=O)N4CCC(F)(F)CC4)cc3)cc(-c3ccc(F)cc3)c2o1)C(=O)N1Cc2ccncc2C1 [Compound 109, N-((5-(4-(4,4-difluoropiperidine-1-carbonyl)phenyl)-7-(4-fluorophenyl)benzofuran-2-yl)methyl)-N-methyl-1H-pyrrolo[3,4-c]pyridine-2(3H)-carboxamide] | < 0.1 µM | – | 0.1 to 5 µM | – | –
O=C(NCc1ccc(-c2ccc(-c3ccc(C(=O)N4CCC(F)(F)CC4)cc3)cc2-c2ccc(F)cc2)o1)N1Cc2ccncc2C1 [Compound 120, N-((5-(4-(4,4-difluoropiperidine-1-carbonyl)-4″-fluoro-[1,1′:3′,1″-terphenyl]-4′-yl)furan-2-yl)methyl)-1,3-dihydro-2H-pyrrolo[3,4-c]pyridine-2-carboxamide] | < 0.1 µM | – | > 10 µM | – | –
Nc1ccc(CNC(=O)NCc2cc3cc(-c4ccc(C(=O)N5CCC(F)(F)CC5)cc4)cc(C(F)(F)F)c3o2)cn1 [Compound 113, 1-((6-aminopyridin-3-yl)methyl)-3-((5-(4-(4,4-difluoropiperidine-1-carbonyl)phenyl)-7-(trifluoromethyl)benzofuran-2-yl)methyl)urea] | > 10 µM | – | > 10 µM | – | –
O=C(NCc1cc2cc(-c3ccc(C(=O)N4CCC(F)(F)CC4)cn3)cc(-c3ccc(F)cc3)c2o1)N1Cc2ccncc2C1 [Compound 110, N-((5-(5-(4,4-difluoropiperidine-1-carbonyl)pyridin-2-yl)-7-(4-fluorophenyl)benzofuran-2-yl)methyl)-1H-pyrrolo[3,4-c]pyridine-2(3H)-carboxamide] | < 0.1 µM | – | < 0.1 µM | – | –
Nc1ccc(CNC(=O)NCc2cc3cc(-c4ccc(C(=O)N5CCC(F)(F)CC5)cc4)cc(-c4ccc(F)cc4F)c3o2)cn1 [Compound 112, 1-((6-aminopyridin-3-yl)methyl)-3-((7-(2,4-difluorophenyl)-5-(4-(4,4-difluoropiperidine-1-carbonyl)phenyl)benzofuran-2-yl)methyl)urea] | < 0.1 µM | – | 0.1 to 5 µM | – | –

Source: US10858347B2, “Multicyclic compounds and uses thereof” (Karyopharm Therapeutics Inc., priority 2015, dated 2020)
